From patent US5227384A, “5-substituted [4,5-c] imidazopyridines and pharmaceutical use thereof” (G. D. Searle & Co., priority 1991, dated 1993)

What was measured:
rabbit platelets [1] = experiment: PAF-induced platelet secretion ([^3 H]serotonin); format: cell-based; settings: Oryctolagus cuniculus, washed [^3 H]serotonin-labeled rabbit platelets, 60 sec after PAF, IC50 by inspection of dose-response curves
Method: (§1) PAF-induced platelet aggregation and secretion: Washed, [^3 H]serotonin-labeled rabbit platelets were prepared as previously described in COX, C. P., J. LINDEN and S. I. SAID: VIP elevates platelet cyclic AMP (cAMP) levels and inhibits in vitro platelet activation induced by platelet-activating factor (PAF). Peptides 5:25-28, 1984, and maintained in an atmosphere of 5% CO2 at 37° C. until used in the bioassay. […] Aggregation was continuously monitored on a strip-chart recorder and recorded as the height of the tracing at 60 sec after the addition of PAF. Secretion of [^3 H]serotonin was measured in a sample of the platelet suspension removed at 60 sec after the addition of PAF. The percent inhibition of aggregation and secretion was calculated by comparing antagonist-treated platelets with the appropriate vehicle-treated control platelets. Each combination of antagonist and PAF was repeated 12-15 times, using several different platelet preparations. IC50 values were determined by inspection of the dose-response curves.

[2] = target: PAF receptor (Human Platelet Membrane Receptors) (Homo sapiens, UniProt P25105)
PAF receptor (Human Platelet Membrane Receptors), sequence (P25105 whole entry): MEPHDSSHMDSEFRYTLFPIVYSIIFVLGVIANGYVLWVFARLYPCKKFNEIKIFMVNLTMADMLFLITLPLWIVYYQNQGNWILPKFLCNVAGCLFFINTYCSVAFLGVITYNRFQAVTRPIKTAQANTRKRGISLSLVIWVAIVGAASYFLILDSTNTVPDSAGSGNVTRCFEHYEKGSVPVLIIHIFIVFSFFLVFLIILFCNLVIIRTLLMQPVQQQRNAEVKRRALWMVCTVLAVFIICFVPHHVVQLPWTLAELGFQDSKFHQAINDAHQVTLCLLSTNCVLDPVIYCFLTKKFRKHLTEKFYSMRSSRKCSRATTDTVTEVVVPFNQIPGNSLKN
Method: Inhibition of ^3 H-PAF Binding to Human Platelet Membrane Receptors
Receptor Preparation: Ten units of in-dated human packed platelets, each containing 45-65 ml platelet rich-plasma, were purchased from a commercial blood bank. Disposable plasticware was used throughout for receptor preparation. The units were pooled and a 1 ml aliquot was removed for determination of platelet concentration, using a Coulter Counter. The remaining platelet rich plasma was dispensed into 50 ml conical tubes and centrifuged at room temperature for 15 minutes at 3000 RPM (2300×g).Plasma was decanted and the platelets were resuspended in 35 ml of buffer 10 mM Trizma 7.0, 2 mM EDTA (dipotassium salt), and 150 mM KCl) and transferred to fresh tubes, which were centrifuged again as above. The platelets were washed 3 times, avoiding contaminating erythrocytes at the bottom of the pellets. Pellets were consolidated at each step, and by the last wash with EDTA/KCl buffer, most of the erythrocytes were in 1 tube. The pellets were resuspended in buffer containing 10 mM Trizma 7.0 with 10 mM CaCl2. Following centrifugation, the buffer was decanted and the pellets were resuspended in the CaCl2 buffer, avoiding erythrocyte contamination by recovering less than 100% of the platelet pellets. The resuspended platelets were dispensed in 8-10 ml aliquots into Corex tubes and disrupted by three cycles of freezing (dry ice/ethanol) and thawing (24° C.). The tubes were centrifuged at 40,000×g for 20 minutes at 4° C. Supernatants were decanted and each pellet was resuspended in 5-7 ml 10 mM Trizma 7.0. All resuspended pellets were pooled and aliquots of about 1200 ml were dispensed into 1.5 ml microfuge tubes and frozen at -70° C. Protein content was determined by a fluorescamine protein assay.
Assay Methods: Receptor Characterization--Each receptor preparation was evaluated to determine the number of receptor populations, the number of PAF receptor equivalents/mg protein and the dissociation constant (KD) for PAF binding. This required 2-3 experiments in which the protein concentration was held constant and the ^3 H-PAF ligand concentration was varied from approximately 0.10-2.5 nM and the data was analyzed by Scatchard methodology. Total incubation volume was 250 ml for these procedures and incubations were conducted at 24° C. for 30 minutes. For further experimentation, total incubation volumes are 500 ml. Protein and ligand concentrations were adjusted to give 0.075 nM receptor equivalents in the presence of 0.75 nM ^3 H-PAF. Each receptor preparation was then used to determine the dose--response displacement relationship of unlabeled PAF and the PAF antagonist, triazolam.
Assay Methods: Routine Assay of Compounds--The compounds were weighed precisely and solubilized in quantities of DMSO such that a 5 ml aliquot in the incubate would deliver the desired compound concentration. Compounds tested for the first time in this assay were evaluated at a concentration of 50 mM in the incubation medium. […] Triazolam was always included in each screening assay as a compound inhibition control. […] Nonspecific binding control solution was made by drying to completion about 26.2 ml unlabeled PAF under a stream of argon. PAF was resolubilized in 1000 ml DMSO. When delivered in a 5 ml aliquot, the final concentration of 1 mM PAF in the incubate exceeded by 1000-fold the concentration of ^3 H-PAF.
All buffers containing proteins were made at room temperature on the day of assay. Assay buffer was prepared by adding 125 mg human albumin to 25 ml of stock buffer (10 mM Trizma 7.4 with 20 mM CaCl2). Rinse buffer was made by adding 20 grams bovine serum albumin to i000 ml stock buffer. About 80 ml of rinse buffer was decanted into a small pyrex dish and used to soak 65 Whatman GF/C 2.5 cm glass filters. The remaining rinse buffer was poured into a repipet and placed into an ice bath along with the filters.

rabbit platelets [3] = experiment: PAF-induced platelet aggregation; format: cell-based; settings: Oryctolagus cuniculus, washed rabbit platelets, 60 sec after PAF, IC50 by inspection of dose-response curves
Method: as §1

| SMILES | IC50 (rabbit platelets [1]; 1 min) | IC50 [2] | IC50 (rabbit platelets [3]; 1 min) | IC50 (rabbit platelets [1]) | IC50 (rabbit platelets [3]) |
| --- | --- | --- | --- | --- | --- |
| O=C(c1ccc(Cn2ccc3ncnc-3c2)cc1)N(C1CCCCC1)C1CC1 [5-[4-(N-cyclopropyl-N-cyclohexylcarboxamido)benzyl]imidazo[4,5-c]pyridine] | 100 to 1000 nM | 3680 nM | – | – | – |
| CC(C)N(C(=O)c1cccc(Cn2ccc3ncnc-3c2)c1)C1CCCCC1 [5-[3-(N-isopropyl-N-cyclohexylcarboxamido)benzyl]imidazo[4,5-c]pyridine] | 1000 to 10000 nM | – | 50000 to 100000 nM | – | – |
| CN(C(=O)c1ccc(Cn2ccc3ncnc-3c2)cc1)C1CCCCC1 [5-[4-(N-methyl-N-cyclohexylcarboxamido)benzyl]imidazo[4,5-c]pyridine] | – | 15200 nM | 1000 to 10000 nM | 720 nM | – |
| COc1cc(C(=O)N(C)C2CCCCC2)ccc1Cn1ccc2ncnc-2c1 [5-[4-(N-methyl-N-cyclohexylcarboxamido)-2-methoxybenzyl]imidazo[4,5-c]pyridine] | 100 to 1000 nM | – | 1000 to 10000 nM | – | – |
| CC1CCCC(N(C(=O)c2ccc(Cn3ccc4ncnc-4c3)cc2)C2CCCC2)C1 (centres unmarked) [5-[4-(N-3-methylcyclohexyl-N-cyclopentylcarboxamido)benzyl]imidazo[4,5-c]pyridine] | 1 to 10 nM | 74 nM | 10 to 100 nM | – | – |
| COc1cc(C(=O)N(C2CCCC2)C2CCCC2)ccc1Cn1ccc2ncnc-2c1 [5-[4-(N,N-dicyclopentylcarboxamido)-2-methoxybenzyl]imidazo[4,5-c]pyridine] | 1 to 10 nM | – | 10 to 100 nM | – | – |
| CC1CCC(N(C(=O)c2ccc(Cn3ccc4ncnc-4c3)cc2)C2CCCC2)CC1 (centres unmarked) [5-[4-(N-4-methylcyclohexyl-N-cyclopentylcarboxamido)benzyl]imidazo[4,5-c]pyridine] | 10 to 100 nM | 750 nM | 100 to 1000 nM | – | – |
| O=C(c1ccc(Cn2ccc3ncnc-3c2)c(F)c1)N(C1CCCCC1)C1CCCC1 [5-[4-(N-cyclopentyl-N-cyclohexylcarboxamido)-2-fluorobenzyl]imidazo[4,5-c]pyridine] | 1 to 10 nM | 75.5 nM | 10 to 100 nM | – | – |
| CCC(C)N(C(=O)c1ccc(Cn2ccc3ncnc-3c2)cc1)C1CCCCC1 (centres unmarked) [5-[4-(N-sec.butyl-N-cyclohexylcarboxamido)benzyl]imidazo[4,5-c]pyridine] | 1 to 10 nM | – | 50 to 100 nM | – | – |
| Cc1cc(C(=O)N(C2CCCCC2)C2CCCC2)ccc1Cn1ccc2ncnc-2c1 [N-cyclohexyl-N-cyclopentyl-4-(5H)-imidazo[4,5-c]pyridin-5-ylmethyl)-3-methylbenzamide] | – | 18 nM | – | 2 nM | – |
| COc1cc(Cn2ccc3ncnc-3c2)ccc1C(=O)N(C1CCCC1)C1CC(C)CC(C)C1 (centres unmarked) [N-cyclopentyl-N-(3,5-dimethylcyclohexyl)-4-(5H-imidazo[4,5-c]pyridin-5-ylmethyl)-2-methoxybenzamide] | – | 1 nM | – | 1 nM | – |
| CCN(C(=O)c1ccc(Cn2ccc3ncnc-3c2)cc1)C1CCCCC1 [5-[4-(N-ethyl-N-cyclohexylcarboxamido)carboxamido)benzyl]imidazo[4,5-c]pyridine] | – | 5200 nM | – | 100 to 1000 nM | 1000 to 10000 nM |
| O=C(c1ccc(Cn2ccc3ncnc-3c2)cc1)N(C1CCCCC1)C1CCCC1 [5-[4-(N-cyclopentyl-N-cyclohexylcarboxamido)benzyl]imidazo[4,5-c]pyridine] | 1 to 10 nM | 320 nM | 10 to 100 nM | – | – |
| CCCCCCCCCCCCNC(=O)c1ccc(Cn2ccc3ncnc-3c2)cc1 [5-[4-(N-n-dodecylcarboxamido)benzyl]imidazo[4,5-c]pyridine] | – | 11900 nM | 100 to 1000 nM | – | – |
| O=C(c1ccc(Cn2ccc3ncnc-3c2)cc1)N(c1ccccc1)C1CCCC1 [5-[4-(N-phenyl-N-cyclopentylcarboxamido)benzyl]imidazo[4,5-c]pyridine] | 100 to 1000 nM | 2350 nM | – | – | 1000 nM |
| CC(C)N(C(=O)c1ccc(Cn2ccc3ncnc-3c2)cc1)C1CCCCC1 [5-[4{-(N-isopropylyl,N-cyclohexyl)carboxamido}benzyl]imidazo[4.5-c]pyridine] | – | 170 nM | 10 to 100 nM | 10 nM | – |
| O=C(c1ccc(Cn2ccc3ncnc-3c2)cc1)N(C1CCCC1)C1CCCC1 [5-[4-(N,N-dicyclopentylcarboxamido)benzyl]imidazo[4,5-c]pyridine] | 1 to 10 nM | 310 nM | 50 to 100 nM | – | – |
| O=C(c1ccc(Cn2ccc3ncnc-3c2)cc1)N(C1CCCCC1)C1CCC1 [5-[4-(N-cyclobutyl-N-cyclohexylcarboxamido)benzyl]imidazo[4,5-c]pyridine] | 1 to 10 nM | 19.9 nM | 10 to 100 nM | – | – |
| CC(C)(C)CC(C)(C)NC(=O)c1ccc(Cn2ccc3ncnc-3c2)cc1 [5-[4-(N-2(2,4,4-trimethyl)pentylcarboxamide)benzyl]imidazo[4,5-c]pyridine] | – | 22300 nM | – | 1000 nM | 10000 nM |

| SMILES | IC50 (rabbit platelets [1]; 1 min) | IC50 [2] | IC50 (rabbit platelets [3]; 1 min) | IC50 (rabbit platelets [1]) | IC50 (rabbit platelets [3]) |
| --- | --- | --- | --- | --- | --- |
| CC(C)N(C(=O)c1ccc(Cn2ccc3ncnc-3c2)c(F)c1)C1CCCCC1 [5-[4-(N-isopropyl-N-cyclohexylcarboxamido)-2-fluorobenzyl]imidazo[4,5-c]pyridine] | 10 to 100 nM | – | 10 to 100 nM | – | – |
| CC(C)N(C(=O)c1ccc(Cn2ccc3ncnc-3c2)cc1)C(C)C [5-[4-(N,N-diisopropylcarboxamido)benzyl]imidazo[4,5-c]pyridine] | – | 7650 nM | 1000 to 10000 nM | – | – |
| CN(C(=O)c1ccc(Cn2ccc3ncnc-3c2)c(F)c1)C1CCCCC1 [5-[4-(N,methyl-N-cyclohexylcarboxamido)-2-fluorobenzyl]imidazo[4,5-c]pyridine] | 100 to 1000 nM | – | 1000 to 10000 nM | – | – |
| CC(C)(C)N(C(=O)c1ccc(Cn2ccc3ncnc-3c2)cc1)C1CCCCC1 [5-[4-(N-tert.butyl-N-cyclohexylcarboxamido)benzyl]imidazo[4,5-c]pyridine] | 1 to 10 nM | – | 10 to 100 nM | – | – |
| O=C(c1ccc(Cn2ccc3ncnc-3c2)cc1)N(C1CCCCC1)C1CCCCC1 [5-[(4-(N,N-dicyclohexylcarboxamido)benzyl]imidazo[4,5-c]pyridine] | – | 1060 nM | 100 to 1000 nM | 10 nM | – |
| CC(C)CN(C(=O)c1ccc(Cn2ccc3ncnc-3c2)cc1)C1CCCCC1 [5-[4-(N-isobutyl-N-cyclohexylcarboxamido)benzyl]imidazo[4,5-c]pyridine] | – | – | – | 100 nM | 1000 nM |
| Cc1nc2ccn(Cc3ccc(C(=O)N(C4CCCC4)C4CCCC4)cc3)cc-2n1 [5-[4-(N,N-dicyclopentylcarboxamido)benzyl]-2-methylimidazo[4,5-c]pyridine] | 100 to 1000 nM | – | 1000 to 10000 nM | – | – |
| O=C(NC1CCCCC1)c1ccc(Cn2ccc3ncnc-3c2)cc1 [5-[4-(N-cyclohexylcarboxamido)benzyl]imidazo[4,5-c]pyridine] | 100 to 1000 nM | 19300 nM | – | – | 10000 nM |
| COc1cc(C(=O)N(C2CCCCC2)C2CCCC2)ccc1Cn1ccc2ncnc-2c1 [5-[4{-(N-cyclopentyl,N-cyclohexyl)carboxamido}-2-methoxybenzyl]imidazo[4,5-c]-pyridine] | 1 to 10 nM | – | – | – | 10 nM |
| COc1cc(C(=O)N(C(C)C)C2CCCCC2)ccc1Cn1ccc2ncnc-2c1 [5-[4{-(N-isopropyl,N-cyclohexyl)carboxamido}-2-methoxybenzyl]imidazo[4,5-c]pyridine] | – | 66.5 nM | 10 to 100 nM | 10 nM | – |
| CN(C(=O)c1ccc(CCCn2ccc3ncnc-3c2)cc1)C1CCCCC1 [5-[3-[4-(N-methyl-N-cyclohexylcarboxamido)phenyl]propyl]imidazo[4,5-c]pyridine] | 1000 to 10000 nM | 61100 nM | 10000 to 100000 nM | – | – |
| CN(C(=O)c1ccc(CCn2ccc3ncnc-3c2)cc1)C1CCCCC1 [5-[2-[4-(N-methyl-N-cyclohexylcarboxamido)phenyl]ethyl]imidazo[4,5-c]pyridine] | 1000 to 10000 nM | – | 10000 to 100000 nM | – | – |
| Cc1c2ncnc-2ccn1Cc1ccc(C(=O)N(C2CCCC2)C2CCCC2)cc1 [5-[4-(N,N-dicyclopentylcarboxamido)benzyl]-4-methylimidazo[4,5-c]pyridine] | 10 to 100 nM | 188 nM | 10 to 100 nM | – | – |
| CN(C(=O)c1ccc(Cn2ccc3ncnc-3c2)cc1)C1CCC2CCCCC2C1 (centres unmarked) [5-[4-(N-2-decalyl-N-methylcarboxamido)benzyl]imidazo[4,5-c]pyridine] | – | 13200 nM | – | 1000 nM | – |
| CCC(CC)N(C(=O)c1ccc(Cn2ccc3ncnc-3c2)cc1)C1CCCCC1 [5-[4-(N-3-pentyl-N-cyclohexylcarboxamido)benzyl]imidazo[4,5-c]pyridine] | 10 to 100 nM | – | 100 to 1000 nM | – | – |
| CCCCCCCCCCNC(=O)c1ccc(Cn2ccc3ncnc-3c2)cc1 [5-[4-(N-n-decylcarboxamido)benzyl]imidazo[4,5-c]pyridine] | 100 to 1000 nM | 9710 nM | 1000 to 10000 nM | – | – |
| CCCCCCCCNC(=O)c1ccc(Cn2ccc3ncnc-3c2)cc1 [5-[4-(N-n-octylcarboxamido)benzyl]imidazo[4,5-c]pyridine] | 100 to 1000 nM | 11000 nM | 1000 to 10000 nM | – | – |
| CN(C(=O)c1cccc(Cn2ccc3ncnc-3c2)c1)C1CCCCC1 [5-[3-(N-methyl-N-cyclohexylcarboxamido)benzyl]imidazo[4,5-c]pyridine] | 10000 to 100000 nM | – | 10000 to 100000 nM | – | – |
